Where two headings read alike, the source gives them in different places.
Experiments:
MGL = biological target: T1, MGL (Rattus norvegicus, UniProt Q8R431); assay: 2-AG accumulation assay in rat brain homogenate; format: biochemical; details: rat brain homogenate, 2-AG accumulation as percent of vehicle; for 2-AG accumulation, % of vehicle control at 1 µM: compound 1 μM, read-out: Rat Brain 2AG % VehCntrl (%) @ 1 μM; for 2-AG accumulation, % of vehicle control at 10 µM: compound 10 μM, read-out: Rat Brain 2AG % VehCntrl (%) @ 10 μM
T1 construct: one g rat brain was homogenized using a Polytron homogenizer; from tissue; host or cells: rat brain homogenate
T1 sequence (Q8R431 1-303): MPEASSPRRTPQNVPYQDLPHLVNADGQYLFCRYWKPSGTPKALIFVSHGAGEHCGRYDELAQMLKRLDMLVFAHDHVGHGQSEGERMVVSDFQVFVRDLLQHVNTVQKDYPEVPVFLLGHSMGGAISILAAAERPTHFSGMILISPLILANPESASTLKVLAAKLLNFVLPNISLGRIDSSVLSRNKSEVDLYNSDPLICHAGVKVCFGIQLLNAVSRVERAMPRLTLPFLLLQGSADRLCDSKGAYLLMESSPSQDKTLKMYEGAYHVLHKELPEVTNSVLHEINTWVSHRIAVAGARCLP

mutant MGL = biological target: T2, mutant MGL (Homo sapiens, UniProt Q99685, L169S/L176S); assay: MGL ThermoFluor assay - mutant; format: binding; details: read-out: MGL mutant ThermoFluor Kd
T2 sequence (Q99685 1-303 L169S/L176S): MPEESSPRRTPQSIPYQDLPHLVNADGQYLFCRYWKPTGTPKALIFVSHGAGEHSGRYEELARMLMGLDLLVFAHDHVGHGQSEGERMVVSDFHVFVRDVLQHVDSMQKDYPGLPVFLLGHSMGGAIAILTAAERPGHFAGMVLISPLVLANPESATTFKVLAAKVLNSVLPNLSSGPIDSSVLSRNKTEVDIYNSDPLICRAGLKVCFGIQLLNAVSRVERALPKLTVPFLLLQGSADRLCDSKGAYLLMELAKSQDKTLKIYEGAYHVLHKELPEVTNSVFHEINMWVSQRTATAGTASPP
Procedure: The ThermoFluor (TF) assay is a 384-well plate-based binding assay that measures thermal stability of proteins^1,2. […] TF dye used in all experiments was 1,8-ANS (Invitrogen: A-47). Final TF assay conditions used for MGL studies were 0.07 mg/ml of mutant MGL, 100 μM ANS, 200 mM NaCl, 0.001% Tween-20 in 50 mM PIPES (pH=7.0).
Screening compound plates contained 100% DMSO compound solutions at a single concentration. […] Columns 12 and 24 were used as DMSO reference and contained no compound. […] Following compound dispension, protein and dye solutions were added to achieve the final assay volume of 3 μL.
Bar-coded assay plates were robotically loaded onto a thermostatically controlled PCR-type thermal block and then heated from 40 to 90° C. degrees at a ramp-rate of 1° C./min for all experiments. Fluorescence was measured by continuous illumination with UV light (Hamamatsu LC6), supplied via fiber optics and filtered through a band-pass filter (380-400 nm; >60D cutoff). Fluorescence emission of the entire 384-well plate was detected by measuring light intensity using a CCD camera (Sensys, Roper Scientific) filtered to detect 500±25 nm, resulting in simultaneous and independent readings of all 384 wells. A single image with 20-sec exposure time was collected at each temperature, and the sum of the pixel intensity in a given area of the assay plate was recorded vs temperature and fit to standard equations to yield the Tm^1. • 1.
For some experiments, quantitative NMR spectroscopy (qNMR) was used to measure concentration of the initial 100% DMSO compound solutions and, using the same fitting method, qKd values were determined

[1] = ThermoFluor thermal stability binding assay
[2] = ThermoFluor concentration-response

Structure (SMILES)	2-AG accumulation, % of vehicle control at 1 µM (MGL) [%]	Kd (mutant MGL; [1]) [nM]	2-AG accumulation, % of vehicle control at 10 µM (MGL) [%]	Kd (mutant MGL; [2]) [nM]
O=C(c1cscn1)N1CCN(C2CN(C(=O)c3cc4cccc(C(F)(F)F)c4s3)C2)CC1 [Cpd 332, 1-(1,3-Thiazol-4-ylcarbonyl)-4-(1-{[7-(trifluoromethyl)-1-benzothiophen-2-yl]carbonyl}azetidin-3-yl)piperazine]	182	109		
O=C(c1ccccc1)N1CCN(C2CN(C(=O)c3sc4cc(-c5ccccc5)ccc4c3Cl)C2)CC1 [Cpd 344]	238	10		
O=C(c1ccccc1)N1CCN(C2CN(C(=O)c3ccc(-c4ccc(C(F)(F)F)cc4)s3)C2)CC1 [Cpd 347]	125	125		
O=C(c1ccc2c(c1)CCCN2C(=O)c1cccc(C(F)(F)F)c1)N1CC(N2CCN(C(=O)c3nccs3)CC2)C1 [Cpd 358, 6-(3-[4-(1,3-Thiazol-2-ylcarbonyl)piperazin-1-yl]-azetidin-1-yl)-carbonyl 1-[3-(trifluoromethyl)phenyl]carbonyl-1,2,3,4-tetrahydroquinoline]	556	65		
O=C(c1ccc2c(c1)CCCN2C(=O)C1CC1)N1CC(N2CCN(C(=O)c3nccs3)CC2)C1 [Cpd 359, 1-(Cyclopropylcarbonyl)-6-({3-[4-(1,3-thiazol-2-ylcarbon-yl)piperazin-1-yl]azetidin-1-yl}carbonyl)-1,2,3,4-tetrahydroquinoline]	176	82.9		
O=C(c1ccc2c(c1)CCCN2C(=O)C1CCCCC1)N1CC(N2CCN(C(=O)c3nccs3)CC2)C1 [Cpd 360]	819	68		
CS(=O)(=O)N1CCCc2cc(C(=O)N3CC(N4CCN(C(=O)c5nccs5)CC4)C3)ccc21 [Cpd 361]	186	144		
O=C(c1ccc2c(c1)CCCN2S(=O)(=O)c1ccccc1)N1CC(N2CCN(C(=O)c3nccs3)CC2)C1 [Cpd 366, 1-(Phenylsulfonyl)-6-({3-[4-(1,3-thiazol-2-ylcarbonyl)piperazin-1-yl]azetidin-1-yl}carbonyl)-1,2,3,4-tetrahydroquinoline]	432	35.3		
O=C(c1ccc2c(c1)CCCN2S(=O)(=O)c1cccc(C(F)(F)F)c1)N1CC(N2CCN(C(=O)c3nccs3)CC2)C1 [Cpd 367, 6-({3-[4-(1,3-Thiazol-2-ylcarbonyl)piperazin-1-yl]azetidin-1-yl}carbonyl)-1-{[3-(trifluoromethyl)phenyl]sulfonyl}-1,2,3,4-tetrahydroquinoline]	701	85.3		
O=C(c1ccc2c(c1)CCCN2S(=O)(=O)c1cccc(F)c1)N1CC(N2CCN(C(=O)c3nccs3)CC2)C1 [Cpd 368, 1-[(3-Fluorophenyl)sulfonyl]-6-({3-[4-(1,3-thiazol-2-ylcarbonyl)piperazin-1-yl]azetidin-1-yl}carbonyl)-1,2,3,4-tetrahydroquinoline]	434	55.1		
O=C(c1ccc2c(c1)CCCN2Cc1ccccc1)N1CC(N2CCN(C(=O)c3nccs3)CC2)C1 [Cpd 370, 1-Benzyl-6-({3-[4-(1,3-thiazol-2-ylcarbonyl)piperazin-1-yl]azetidin-1-yl}carbonyl)-1,2,3,4-tetrahydroquinoline]	888	1		
O=C(c1ccccc1)N1CCN(C2CN(C(=O)c3ccc(OCc4ccc(Cl)c(Cl)c4)cc3)C2)CC1 [Cpd 379, 1-[1-({4-[(3,4-dichlorobenzyl)oxy]phenyl}carbonyl)azetidin-3-yl]-4-(phenylcarbonyl)piperazine]		40	760	
O=C(c1ccccc1)N1CCN(C2CN(C(=O)c3ccc(OCc4cccc(Cl)c4)c(Cl)c3)C2)CC1 [Cpd 397, 1-[1-({3-Chloro-4-[(3-chlorobenzyl)oxy]phenyl}carbonyl)azetidin-3-yl]-4-(phenylcarbonyl)piperazine]		33.3	243	

Further lines, results first:

2-AG accumulation, % of vehicle control at 1 µM (MGL) [%]	Kd (mutant MGL; [1]) [nM]	2-AG accumulation, % of vehicle control at 10 µM (MGL) [%]	Kd (mutant MGL; [2]) [nM]	Structure (SMILES)
392	86.9			O=C(c1ccc(OCc2ccncc2)c(Cl)c1)N1CC(N2CCN(C(=O)c3nccs3)CC2)C1 [Cpd 398, 1-(1-{[3-Chloro-4-(pyridin-4-ylmethoxy)phenyl]carbon-yl}azetidin-3-yl)-4-(1,3-thiazol-2-ylcarbonyl)piperazine]
	1.67	762		O=C(c1ccc(OCc2cccc(Cl)c2)c(Cl)c1)N1CC(N2CCN(C(=O)c3nccs3)CC2)C1 [Cpd 401, 1-[1-({3-Chloro-4-[(3-chlorobenzyl)oxy]phenyl}carbon-yl)azetidin-3-yl]-4-(1,3-thiazol-2-ylcarbonyl)piperazine]
97	141			O=C(c1ccc(OCc2cccnc2)c(Cl)c1)N1CC(N2CCN(C(=O)c3nccs3)CC2)C1 [Cpd 402, 1-(1-{[3-Chloro-4-(pyridin-3-ylmethoxy)phenyl]carbon-yl}azetidin-3-yl)-4-(1,3-thiazol-2-ylcarbonyl)piperazine]
188	338			O=C(c1ccc(OCc2ccncc2)cc1)N1CC(N2CCN(C(=O)c3nccs3)CC2)C1 [Cpd 403, 1-(1-{[4-(Pyridin-4-ylmethoxy)phenyl]carbonyl}azetidin-3-yl)-4-(1,3-thiazol-2-ylcarbonyl)piperazine]
99	932			O=C(c1ccccc1)N1CCN(C2CN(C(=O)c3ccc(OCc4ccccn4)c(Cl)c3)C2)CC1 [Cpd 406]
		720	33.3	O=C(c1ccccc1)N1CCN(C2CN(C(=O)c3ccc(SCc4cccc(Cl)c4)cc3)C2)CC1 [Cpd 410, 1-[1-({4-[(3-Chlorobenzyl)sulfanyl]phenyl}carbonyl)azetidi-3-yl]-4-(phenylcarbonyl)piperazine]
		741	33.3	O=C(c1ccccc1)N1CCN(C2CN(C(=O)c3ccc(SCc4cccc(Cl)c4Cl)cc3)C2)CC1 [Cpd 411, 1-[1-({4-[(2,3-Dichlorobenzyl)sulfanyl]phenyl}carbonyl)azetidin-3-yl]-4-(phenylcarbonyl)piperazine]
228			160	O=C(c1ccc(SCc2cccnc2)cc1)N1CC(N2CCN(C(=O)c3nccs3)CC2)C1 [Cpd 416]
120			53.2	O=C(c1ccccc1)N1CCN(C2CN(C(=O)c3ccc(Oc4ccc(Cl)c(Cl)c4)cc3)C2)CC1 [Cpd 422, 1-(1-{[4-(3,4-Dichlorophenoxy)phenyl]carbonyl}azetidin-3-yl)-4-(phenylcarbonyl)piperazine]
529			6.9	O=C(c1ccc(Oc2ccc(Cl)c(Cl)c2)cc1)N1CC(N2CCN(C(=O)c3nccs3)CC2)C1 [Cpd 423, 1-(1-{[4-(3,4-Dichlorophenoxy)phenyl]carbonyl}azetidin-3-yl)-4-(1,3-thiazol-2-ylcarbonyl)piperazine]
163			33.5	O=C(c1ccccc1)N1CCN(C2CN(C(=O)c3ccc(Sc4cccc(Cl)c4)cc3)C2)CC1 [Cpd 427, 4-(1-{[4-(3-Chloro-phenylsulfanyl)phenyl]carbonyl}azetidin-3-yl)-1-(phenylcarbonyl)-piperazine]
734			3.3	O=C(c1ccc(Sc2cccc(Cl)c2)cc1)N1CC(N2CCN(C(=O)c3nccs3)CC2)C1 [Cpd 428]
318			33.1	O=C(c1ccc(Sc2cccc(Cl)c2)cc1)N1CC(N2CCN(C(=O)c3cscn3)CC2)C1 [Cpd 429]
917			12	O=C(c1ccc(COc2cccc(Cl)c2)cc1)N1CC(N2CCN(C(=O)c3nccs3)CC2)C1 [Cpd 453, 1-[1-({4-[(3-Chlorophenoxy)methyl]phenyl}carbonyl)azetidin-3-yl]-4-(1,3-thiazol-2-ylcarbonyl)piperazine]
366			14	O=C(c1ccccc1)N1CCN(C2CN(C(=O)c3ccc(NCc4ccccc4)c(I)c3)C2)CC1 [Cpd 542]
158	38			O=C(c1ccccc1)N1CCN(C2CN(C(=O)c3sc4cc(F)ccc4c3Cl)C2)CC1 [Cpd 543]
280			62	O=C(c1ccccc1)N1CCN(C2CN(C(=O)c3ccc(COc4cccc(Cl)c4)cc3)C2)CC1 [Cpd 548]
106			78	O=C(c1ccccc1)N1CCN(C2CN(C(=O)c3ccc(-c4ccccc4)cc3Cl)C2)CC1 [Cpd 612]
165			51	Cc1cc(C(=O)N2CC(N3CCN(C(=O)c4ccccc4)CC3)C2)ccc1-c1ccccc1 [Cpd 613]
87			66	O=C(c1ccccc1)N1CCN(C2CN(C(=O)c3ccc(-c4ccccc4)cc3F)C2)CC1 [Cpd 614]
